Reference: EP4269424A1, “NOVEL ANTIVIRAL COMPOUNDS AND USE THEREOF” (priority 2022, dated 2023)
No end group written: not given here.

Experiments:
[1] = tested on: Vero E6 cells
[2] = target: G3BP1; format: binding, human

## CC[C@H](C)[C@H](NC(=O)CNC(=O)[C@H](CO)NC(=O)[C@H](C)NC(=O)[C@H](CC(C)C)NC(=O)[C@H](C)NC(=O)[C@H](CC(=O)O)NC(=O)[C@@H](NC(=O)[C@H](CCC(=O)O)NC(=O)[C@H](Cc1c[nH]cn1)NC(=O)[C@H](CCC(=O)O)NC(=O)[C@H](CC(=O)O)NC(=O)[C@H](Cc1ccccc1)NC(=O)[C@H](CC(=O)O)NC(=O)CNC(=O)[C@H](Cc1ccccc1)NC(=O)[C@@H](NC(=O)[C@H](CC(C)C)NC(=O)[C@H](CCCNC(=N)N)NC(=O)[C@H](CCCNC(=N)N)NC(=O)[C@H](CCCNC(=N)N)NC(=O)[C@H](CCC(N)=O)NC(=O)[C@H](CCCNC(=N)N)NC(=O)[C@H](CCCNC(=N)N)NC(=O)[C@H](CCCCN)NC(=O)[C@H](CCCCN)NC(=O)[C@H](CCCNC(=N)N)NC(=O)CNC(=O)[C@@H](N)Cc1ccc(O)cc1)[C@@H](C)O)C(C)C)C(=O)N[C@H](C(=O)N[C@@H](Cc1ccccc1)C(=O)NCC(=O)N[C@@H](CC(=O)O)C(=O)N[C@@H](Cc1ccccc1)C(=O)N[C@@H](CC(=O)O)C(=O)N[C@@H](CC(=O)O)C(=O)O)[C@@H](C)O [G3BPi WT]
[1]
  cell viability: not affected

## CC[C@H](C)[C@H](NC(=O)CNC(=O)[C@H](CO)NC(=O)[C@H](C)NC(=O)[C@H](CC(C)C)NC(=O)[C@H](C)NC(=O)[C@H](CCC(=O)O)NC(=O)[C@H](Cc1c[nH]cn1)NC(=O)[C@H](CCC(=O)O)NC(=O)[C@H](CC(=O)O)NC(=O)[C@H](Cc1ccccc1)NC(=O)[C@H](CC(=O)O)NC(=O)CNC(=O)[C@H](Cc1ccccc1)NC(=O)[C@@H](NC(=O)[C@@H](N)CC(C)C)[C@@H](C)O)C(=O)N[C@H](C(=O)N[C@@H](Cc1ccccc1)C(=O)NCC(=O)N[C@@H](CC(=O)O)C(=O)N[C@@H](Cc1ccccc1)C(=O)N[C@@H](CC(=O)O)C(=O)N[C@@H](CC(=O)O)C(=O)N[C@@H](Cc1c[nH]c2ccccc12)C(=O)O)[C@@H](C)O [G3BPi spacer2]
[2]
  Kd: 4.4 µM

## LTFGDFTGSTGSTGSTGITFGDFDDW [G3BPi spacer3]
[2]
  Kd: 2.4 µM
